Data: patent publication US10722479B2, “Dimethoxyphenyl inhibitors of vesicular monoamine transporter 2” (AUSPEX PHARMACEUTICALS, INC., priority 2015, dated 2020)

Experiment: In vitro liver microsomal stability assay
Conditions: human liver microsomes 0.5 mg per mL, NADPH 2 mM, pH 7.4, 1 uM compound, 37° C.; relative to d0 (Example 1)
Experimental: In Vitro Liver Microsomal Stability Assay
Human liver microsomal stability assays were conducted at 0.5 mg per mL liver microsome protein with NADPH (2 mM, pH 7.4).
Reactions were initiated with the addition of NADPH cofactor and were stopped at 0, 5, 15, 20 or 30 min after cofactor addition with stop reagent, acetonitrile. After quenching, plates containing samples were vibrated for 10 min (600 rpm/min) and then centrifuged at 5594 g for 15 min. Supernatant fractions were analyzed by LC-MS/MS to determine the percent remaining and estimate the degradation half-life of the test compounds.

Clearance % change over d0 | Half-life % change over d0 | Structure (SMILES)
1.68% | −1.65% | [2H]C([2H])([2H])Oc1ccc(CCNCC(O)COc2cccc(C)c2)cc1OC([2H])([2H])[2H] (stereo not shown) [Example 2, [2-[3,4-bis(^2H6)methoxyphenyl]ethyl][2-hydroxy-3-(3-methylphenoxy)propyl]amine]
−4.71% | 4.95% | [2H]C([2H])([2H])c1cccc(OCC(O)CNCCc2ccc(OC)c(OC)c2)c1 (stereo not shown) [Example 3, [2-(3,4-dimethoxyphenyl)ethyl]([2-hydroxy-3-[3-(2H3)methylphenoxy]propyl])amine]
0.85% | −0.84% | [2H]C([2H])([2H])Oc1ccc(CCNC([2H])([2H])C([2H])(O)C([2H])([2H])Oc2cccc(C)c2)cc1OC([2H])([2H])[2H] (stereo not shown) [Example 5, 1-([2-[3,4-bis(^2H6)methoxyphenyl]ethyl]amino)-3-(3-methylphenoxy)(^2H5) propan-2-ol]

Continued, compound first:

Structure (SMILES) | Clearance % change over d0 | Half-life % change over d0
COc1ccc(CCNCC(O)COc2cccc(C)c2)cc1OC (stereo not shown) [Example 1, [2-(3,4-dimethoxyphenyl)ethyl][2-hydroxy-3-(3-methylphenoxy)propyl]amine, reference compound] | 0.00% | 0.00%
[2H]C([2H])([2H])Oc1ccc(CCNCC(O)COc2cccc(C([2H])([2H])[2H])c2)cc1OC([2H])([2H])[2H] (stereo not shown) [Example 4, [2-[3,4-bis(^2H6)methoxyphenyl]ethyl]([2-hydroxy-3-[3-(^2H3)methylphenoxy]propyl])amine] | −21.15% | 26.83%
